# Results published in patent US20110071220A1, “Use of Tetronic Acid Derivatives for Fighting Insects and Red Spider Mites by Watering on the Ground, Droplet Application or Immersion Application” (Bayer CropScience AG, priority 2008, published 2011).
# How the values were obtained:
# Assay type in all cases: in vivo
# [1] = test system: greenhouse red spider mite (Tetranychus urticae); experiment: Tetranychus urticae test, soil application in rock wool (eggplants); conditions: 10 mg of ai/plant
# Description: To produce a suitable solution, the product is mixed with water and diluted with water to the desired concentration. The desired amount of additive is added to the mixtures. Eggplants (Solanum melongena) are cultivated in rock wool. At the 4-leaf stage, the product solution in question is applied to the rock wool. The stated concentration refers to the amount of active compound per plant.
# At the desired point in time, the plants are infested with a mixed population of the greenhouse red spider mite (Tetranychus urticae).
# After the desired period of time, the effect in % is determined. 100% means that all spider mites have been killed; 0% means that none of the spider mites have been killed.
# [2] = test system: whiteflies (Bemisia tabaci); experiment: Bemisia tabaci test on tomatoes, drench application in rock wool; conditions: 5 mg of ai/plant; tomato plants in rock wool; days between application and infestation −11; mortality determined 25 days after infestation
# Description: (§1) To produce a suitable solution, the product is mixed with water and diluted with water to the desired concentration. The desired amount of additive is added to the mixtures.
# Tomato plants (Solanum lycopersicum) are cultivated in rock wool and infested with whiteflies (Bemisia tabaci). At the 2-leaf stage, the product solution in question is applied to the rock wool. The stated concentration refers to the amount of active compound per plant.
# (§2) After the desired period of time, the effect in % is determined. 100% means that all the whiteflies have been killed; 0% means that none of the whiteflies have been killed.
# [3] = test system: whiteflies (Bemisia tabaci); experiment: Bemisia tabaci test on cucumbers, drench application in rock wool; conditions: 20 mg of ai/plant, days between application and infestation −11, mortality determined 18 days after infestation
# Description: as §1
# Cucumbers (Cucumis sativa) are cultivated in rock wool and infested with whiteflies (Bemisia tabaci). At the 2-leaf stage, the product solution in question is applied to the rock wool. The stated concentration refers to the amount of active compound per plant.
# as §2
structure (smiles),measurement,setting,value
"Cc1cc(C)c(C2=C(OC(=O)CC(C)(C)C)C3(CCCC3)OC2=O)c(C)c1 [spiromesifen (II-2), spiromesifen]",Mortality,"[1]; days between application and infestation 14, mortality determined 14 days after infestation",20%
same,Mortality,"[1]; days between application and infestation −1, mortality determined 7 days after infestation",30%
same,Mortality,"[1]; days between application and infestation −1, mortality determined 14 days after infestation",10%
same,Mortality,[2],80%
same,Mortality,[3],0%
